Data taken from publication PMC11959965 (Acta Pharmaceutica Sinica. B, 2024).
“Also recorded” adds a separate entry of the source.

How the values were obtained:
TSPO [1] = biological target: T1, TSPO (Rattus norvegicus, UniProt P16257); assay: In vitro autoradiography on rat brain slices; assay type: binding; settings: sham rat brain slices; PK11195 14.17 μmol/L, [19F]F-TFQC 12.91 μmol/L; 14.5 nmol/L [18F]F-TFQC; P < 0.001
TSPO [2] = biological target: T1, TSPO; assay: Micro PET/CT imaging in KA-induced epileptic rats; assay type: in vivo, SD rats; settings: 2 mg/kg i.v. 10 min prior to [18F]F-TFQC, P < 0.05
TSPO [3] = settings: read-out: human U87MG Ki; cited from earlier work

T1 sequence (P16257 whole entry): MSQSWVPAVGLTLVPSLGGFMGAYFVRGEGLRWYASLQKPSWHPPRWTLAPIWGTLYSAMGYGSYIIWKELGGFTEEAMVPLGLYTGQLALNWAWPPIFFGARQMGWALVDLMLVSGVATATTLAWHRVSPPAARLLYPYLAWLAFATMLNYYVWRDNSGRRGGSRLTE

SMILES	blocking of [18F]F-TFQC autoradiography signals (TSPO [1])	blocking of [18F]F-TFQC radioactivity in the right hippocampus (TSPO [2])	Ki (TSPO [3])
CCC(C)N(C)C(=O)c1cc2ccccc2c(-c2ccccc2Cl)n1 (stereo not shown) [PK11195, reference compound]	disappeared; also recorded: blocked	–	–
CC[C@@H](C)N(C)C(=O)c1nc(-c2cccc(C(F)(F)F)c2)c2ccccc2n1 [[^19F]F-TFQC, N-((2R)-but-2-yl)-N-methyl-4-(3-(trifluoromethyl)phenyl)quinazoline-2-carboxamide]	disappeared; also recorded: blocked	blocked	1.19 nM
